From ChEMBL document CHEMBL1201862, “PubChem BioAssay data set” (2004)
The source made the active and inactive calls.

What was measured:
Type in all cases: functional
[1] = molecular target: T1, High affinity choline transporter 1 (Homo sapiens, UniProt Q9GZV3); assay: CHT inhibitors, dose response, cell-based, 5-point CRC, membrane potential dye (AID 504840)
T1 sequence (Q9GZV3 whole entry): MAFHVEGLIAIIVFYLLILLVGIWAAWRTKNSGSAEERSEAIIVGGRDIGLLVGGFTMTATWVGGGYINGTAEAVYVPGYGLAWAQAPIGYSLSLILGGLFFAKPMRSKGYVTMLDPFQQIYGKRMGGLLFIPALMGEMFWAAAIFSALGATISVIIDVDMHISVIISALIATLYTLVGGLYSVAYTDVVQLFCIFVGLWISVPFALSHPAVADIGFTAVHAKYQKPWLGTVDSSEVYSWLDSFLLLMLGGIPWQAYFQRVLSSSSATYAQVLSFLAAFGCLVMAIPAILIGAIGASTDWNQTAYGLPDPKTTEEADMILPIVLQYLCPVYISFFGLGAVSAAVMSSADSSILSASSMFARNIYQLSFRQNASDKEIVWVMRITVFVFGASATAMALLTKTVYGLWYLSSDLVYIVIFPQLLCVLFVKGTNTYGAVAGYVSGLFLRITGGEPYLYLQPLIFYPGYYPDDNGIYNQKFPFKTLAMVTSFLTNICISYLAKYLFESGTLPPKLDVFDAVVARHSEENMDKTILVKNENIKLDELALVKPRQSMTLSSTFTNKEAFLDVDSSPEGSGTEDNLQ

[2] = molecular target: T1, High affinity choline transporter 1; assay: inhibitors of CHT choline uptake, dose response, cell-based, 3H-choline uptake, CHT LV-AA trafficking mutant, CRC (AID 602208)
[3] = molecular target: T1, High affinity choline transporter 1; assay: CHT inhibitors, dose response, cell-based, 10-point CRC, membrane potential dye (AID 588401);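 further: membrane potential dye fluorescence of choline-evoked depolarization via CHT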

Measured: IC50

COc1ccc(C(=O)NCc2nc(C)c(C)s2)cc1OC1CCN(C(C)C)CC1
active: [1] 1.32 µM | [2] 0.303 µM | [3] 0.761 µM
